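96-well plates; 48 h exposure; 5 concentrations. Endpoints by linear interpolation between flanking doses. Not reached: highest tested concentration assigned. GI50: concentration for 50% inhibition of growth. TGI denotes the concentration required for complete inhibition of growth.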
Columns and labels:
Experiment in all cases: NCI anticancer screen, dose series, 48 h
MALME-3M melanoma = test system: MALME-3M melanoma
SF-268 CNS = test system: SF-268 CNS
MDA-MB-231 breast = test system: MDA-MB-231 breast
RXF 393 renal = test system: RXF 393 renal
MOLT-4 leukemia = test system: MOLT-4 leukemia
OVCAR-8 ovarian = test system: OVCAR-8 ovarian
SNB-19 CNS = test system: SNB-19 CNS
SK-MEL-5 melanoma = test system: SK-MEL-5 melanoma
OVCAR-4 ovarian = test system: OVCAR-4 ovarian
A498 renal = test system: A498 renal

## COc1ccc(C2[C@@H](Cl)C(=O)N2c2cc(OC)c(OC)c(OC)c2)cc1Cl (stereo partly specified)
MALME-3M melanoma
  GI50: 20.7 µM
  TGI: 72.4 µM
SF-268 CNS
  GI50: 0.291 µM
  TGI: 30.6 µM
MDA-MB-231 breast
  GI50: 0.273 µM
  TGI: 26.1 µM
RXF 393 renal
  GI50: 0.0615 µM
  TGI: 65.5 µM
MOLT-4 leukemia
  GI50: 0.275 µM
  TGI: 50.5 µM
OVCAR-8 ovarian
  GI50: 0.272 µM
  TGI: 20.5 µM
SNB-19 CNS
  GI50: 0.293 µM
  TGI: > 100 µM
SK-MEL-5 melanoma
  GI50: 0.102 µM
  TGI: 0.795 µM
OVCAR-4 ovarian
  GI50: 0.837 µM
  TGI: > 100 µM
A498 renal
  GI50: 0.0285 µM
  TGI: 0.263 µM

## O=C(O)COc1c(Cl)cc(Cl)c2cccnc12
MALME-3M melanoma
  TGI: > 100 µM
SF-268 CNS
  TGI: > 100 µM
MDA-MB-231 breast
  TGI: > 100 µM
RXF 393 renal
  TGI: > 100 µM
MOLT-4 leukemia
  TGI: > 100 µM
OVCAR-8 ovarian
  TGI: > 100 µM
SNB-19 CNS
  TGI: > 100 µM
SK-MEL-5 melanoma
  TGI: > 100 µM
OVCAR-4 ovarian
  TGI: > 100 µM
A498 renal
  TGI: > 100 µM

## CC(C)(C)c1ccc(C(=O)Nc2sc3c(c2C(N)=O)CCC(=O)C3)cc1
MALME-3M melanoma
  GI50: 0.906 µM
  TGI: 2.66 µM
SF-268 CNS
  GI50: 1.11 µM
  TGI: 3.61 µM
MDA-MB-231 breast
  GI50: 0.999 µM
  TGI: 2.63 µM
RXF 393 renal
  GI50: 0.426 µM
  TGI: 1.94 µM
MOLT-4 leukemia
  GI50: 0.705 µM
  TGI: 3.45 µM
OVCAR-8 ovarian
  GI50: 0.831 µM
  TGI: 4.85 µM
SNB-19 CNS
  GI50: 0.457 µM
  TGI: 1.94 µM
SK-MEL-5 melanoma
  GI50: 1.53 µM
  TGI: 2.96 µM
OVCAR-4 ovarian
  GI50: 0.354 µM
  TGI: 1.27 µM
A498 renal
  GI50: 2.83 µM
  TGI: 9.04 µM

## O=C(Nc1cccc(Nc2ncc(Br)c(NCCc3cnc[nH]3)n2)c1)N1CCCC1
MALME-3M melanoma
  GI50: 6.19 µM
  TGI: 20 µM
SF-268 CNS
  GI50: 1.41 µM
  TGI: 13.9 µM
MDA-MB-231 breast
  GI50: 4.07 µM
  TGI: 29.2 µM
RXF 393 renal
  GI50: 1.61 µM
  TGI: 9.06 µM
MOLT-4 leukemia
  GI50: 2.41 µM
  TGI: 24.8 µM
OVCAR-8 ovarian
  GI50: 8.44 µM
  TGI: 24.8 µM
SNB-19 CNS
  GI50: 9.02 µM
  TGI: > 61.4 µM
SK-MEL-5 melanoma
  TGI: 22.1 µM
OVCAR-4 ovarian
  GI50: 3.71 µM
  TGI: 31.1 µM
A498 renal
  GI50: 4.31 µM
  TGI: 16.6 µM

## C[C@@H]1O[C@@H](O[C@H]2CC[C@@]3(C)[C@H](CCC4[C@@H]3C(O)C[C@]3(C)[C@@H](c5ccc(=O)oc5)CC[C@]43O)C2)[C@H](O)[C@H](O)[C@H]1O (stereo partly specified)
MALME-3M melanoma
  GI50: 0.00659 µM
  TGI: 0.0166 µM
SF-268 CNS
  GI50: < 0.00325 µM
  TGI: 0.00502 µM
MDA-MB-231 breast
  GI50: 0.0112 µM
  TGI: 0.0369 µM
RXF 393 renal
  GI50: 0.0064 µM
  TGI: 0.0194 µM
MOLT-4 leukemia
  GI50: < 0.00325 µM
OVCAR-8 ovarian
  GI50: 0.00415 µM
  TGI: 0.00801 µM
SNB-19 CNS
  GI50: 0.0108 µM
  TGI: 0.0357 µM
SK-MEL-5 melanoma
  GI50: 0.00561 µM
  TGI: 0.0107 µM
OVCAR-4 ovarian
  GI50: < 0.00325 µM
A498 renal
  GI50: 0.00859 µM
  TGI: 0.0357 µM

## Cc1ccc(C2=Nc3ccccc3SC(c3cccc([N+](=O)[O-])c3)C2)cc1 (stereo unspecified)
MALME-3M melanoma
  TGI: > 100 µM
SF-268 CNS
  TGI: > 100 µM
MDA-MB-231 breast
  TGI: > 100 µM
RXF 393 renal
  TGI: 72.2 µM
OVCAR-8 ovarian
  TGI: 71.2 µM
SNB-19 CNS
  TGI: > 100 µM
SK-MEL-5 melanoma
  TGI: > 100 µM
OVCAR-4 ovarian
  TGI: > 100 µM
A498 renal
  TGI: > 100 µM

## CN1CCC(n2cnc(-c3ccc(F)cc3)c2-c2ccnc(N)n2)CC1
MALME-3M melanoma
  GI50: 8.77 µM
  TGI: > 25 µM
SF-268 CNS
  GI50: 10.4 µM
  TGI: > 25 µM
MDA-MB-231 breast
  GI50: 13.5 µM
  TGI: > 25 µM
RXF 393 renal
  GI50: 9.74 µM
  TGI: > 25 µM
MOLT-4 leukemia
  GI50: 12.6 µM
  TGI: > 25 µM
OVCAR-8 ovarian
  GI50: 6.3 µM
  TGI: > 25 µM
SNB-19 CNS
  GI50: 10.3 µM
  TGI: > 25 µM
SK-MEL-5 melanoma
  GI50: 11.6 µM
  TGI: > 25 µM
OVCAR-4 ovarian
  GI50: 7.04 µM
  TGI: > 25 µM
A498 renal
  GI50: 5.85 µM
  TGI: > 23.5 µM

## COc1cc(/C=C/[N+](=O)[O-])cc(Br)c1OC
MALME-3M melanoma
  GI50: 2.61 µM
  TGI: 8.13 µM
SF-268 CNS
  GI50: 3.64 µM
  TGI: 13.2 µM
MDA-MB-231 breast
  GI50: 3.03 µM
  TGI: 8.05 µM
RXF 393 renal
  GI50: 1.61 µM
  TGI: 3.01 µM
MOLT-4 leukemia
  GI50: 3.52 µM
  TGI: 53.6 µM
OVCAR-8 ovarian
  GI50: 3.54 µM
  TGI: 13.1 µM
SNB-19 CNS
  GI50: 6.93 µM
  TGI: 19.2 µM
SK-MEL-5 melanoma
  GI50: 2.13 µM
  TGI: 4.93 µM
OVCAR-4 ovarian
  GI50: 7.65 µM
  TGI: 20.8 µM
A498 renal
  GI50: 2.03 µM
  TGI: 8.53 µM

## CN(CC(N)=O)C(=O)N(CCCl)N=O
MALME-3M melanoma
  TGI: > 100 µM
SF-268 CNS
  TGI: > 100 µM
MDA-MB-231 breast
  TGI: > 100 µM
RXF 393 renal
  TGI: > 100 µM
MOLT-4 leukemia
  TGI: > 100 µM
OVCAR-8 ovarian
  TGI: > 100 µM
SNB-19 CNS
  TGI: > 100 µM
SK-MEL-5 melanoma
  TGI: > 100 µM
OVCAR-4 ovarian
  TGI: > 100 µM
A498 renal
  TGI: > 100 µM

## c1ccc2c3c([nH]c2c1)C1CCCN1CC3 (stereo unspecified)
MALME-3M melanoma
  TGI: > 10 µM
SF-268 CNS
  TGI: > 10 µM
MDA-MB-231 breast
  TGI: > 10 µM
RXF 393 renal
  TGI: > 10 µM
MOLT-4 leukemia
  TGI: > 10 µM
OVCAR-8 ovarian
  TGI: > 10 µM
SNB-19 CNS
  TGI: > 10 µM
SK-MEL-5 melanoma
  TGI: > 10 µM
OVCAR-4 ovarian
  TGI: > 10 µM
A498 renal
  TGI: > 10 µM

## Cc1ccc(NC(=O)c2ccccc2C(=O)O)cc1C
MALME-3M melanoma
  TGI: > 100 µM
SF-268 CNS
  TGI: > 100 µM
MDA-MB-231 breast
  TGI: > 100 µM
RXF 393 renal
  TGI: > 100 µM
MOLT-4 leukemia
  TGI: > 100 µM
OVCAR-8 ovarian
  TGI: > 100 µM
SNB-19 CNS
  TGI: > 100 µM
SK-MEL-5 melanoma
  TGI: > 100 µM
OVCAR-4 ovarian
  TGI: > 100 µM
A498 renal
  TGI: > 100 µM

## CC(C)(C)CN1CCn2c(nc3c(N)nccc32)S1
MALME-3M melanoma
  GI50: 7.72 µM
  TGI: 41.3 µM
SF-268 CNS
  GI50: 12.5 µM
  TGI: 34.9 µM
MDA-MB-231 breast
  GI50: 19.8 µM
  TGI: > 100 µM
RXF 393 renal
  GI50: 15.7 µM
  TGI: 64.5 µM
MOLT-4 leukemia
  GI50: 5.55 µM
  TGI: 82 µM
OVCAR-8 ovarian
  GI50: 6.27 µM
  TGI: > 100 µM
SNB-19 CNS
  GI50: 32.8 µM
  TGI: > 100 µM
SK-MEL-5 melanoma
  GI50: 14.5 µM
  TGI: 31.1 µM
OVCAR-4 ovarian
  GI50: 13.6 µM
  TGI: 40.1 µM

## O=c1[nH]cnc2c(C3NC(CO)C(O)C3O)c[nH]c12 (stereo unspecified)
MALME-3M melanoma
  GI50: > 100 µM
  TGI: > 100 µM
SF-268 CNS
  GI50: > 100 µM
  TGI: > 100 µM
MDA-MB-231 breast
  GI50: > 100 µM
  TGI: > 100 µM
RXF 393 renal
  GI50: > 100 µM
  TGI: > 100 µM
OVCAR-8 ovarian
  GI50: > 100 µM
  TGI: > 100 µM
SNB-19 CNS
  GI50: > 100 µM
  TGI: > 100 µM
SK-MEL-5 melanoma
  GI50: > 100 µM
  TGI: > 100 µM
OVCAR-4 ovarian
  GI50: > 100 µM
  TGI: > 100 µM
A498 renal
  GI50: > 100 µM
  TGI: > 100 µM

## CN1CCN(CC(O)COc2c(Br)c(Br)c(Br)c3c2OC(C)(C)C3)CC1 (stereo unspecified)
SF-268 CNS
  GI50: 5.79 µM
  TGI: 24.1 µM
MDA-MB-231 breast
  GI50: 2.56 µM
  TGI: 6.8 µM
RXF 393 renal
  GI50: 3.3 µM
  TGI: 6.53 µM
OVCAR-8 ovarian
  GI50: 10.3 µM
  TGI: 42.2 µM
SNB-19 CNS
  GI50: 12.7 µM
  TGI: 42.9 µM
SK-MEL-5 melanoma
  GI50: 1.83 µM
  TGI: 3.27 µM
OVCAR-4 ovarian
  GI50: 13.7 µM
  TGI: 35.1 µM
A498 renal
  GI50: 10.1 µM
  TGI: 28.7 µM

## O=[N+]([O-])c1cc(S(=O)(=O)Oc2ccccc2)ccc1Cl
SF-268 CNS
  GI50: 1.83 µM
  TGI: 3.4 µM
MDA-MB-231 breast
  GI50: 3.89 µM
  TGI: 16.2 µM
RXF 393 renal
  GI50: 5.57 µM
  TGI: 17.7 µM
MOLT-4 leukemia
  GI50: 2.17 µM
  TGI: 45.1 µM
OVCAR-8 ovarian
  GI50: 5.15 µM
  TGI: 19.7 µM
SNB-19 CNS
  GI50: 3.11 µM
  TGI: 11.1 µM
SK-MEL-5 melanoma
  GI50: 4.06 µM
  TGI: 15 µM
OVCAR-4 ovarian
  GI50: 1.75 µM
  TGI: 3.2 µM
A498 renal
  GI50: 1.68 µM
  TGI: 4.05 µM

Reference: PubChem BioAssay (NCI)
